Structures are written as SMILES.

Series [1] in a line: Apparent volume of distribution in dog at 1 mg/kg, iv. To be noted: in vivo, read-out: Vz. The format is ADME, organism-based, Canis lupus familiaris.
The subject of the next series is Rattus norvegicus. As to the kind of experiment: Analgesic activity in sciatic nerved CCI-induced neuropathic pain rat model assessed as reduction in mechanical hyperalgesia at 10 mg/kg, po administered from day 14 post CCI-surgery and measured after 3.5 to 5.5 hrs by Von Frey test. To be noted: time 3.5-5.5 hrs. Format: functional, organism-based.
Series [2] in a line: Oral bioavailability in C57BL/6J mouse at 10 mg/kg. Format: ADME, organism-based. To be noted: in vivo.
The target of series [3] is T1, cGMP-dependent protein kinase 2 (Homo sapiens) (UniProt Q13237).
T1 sequence (whole entry): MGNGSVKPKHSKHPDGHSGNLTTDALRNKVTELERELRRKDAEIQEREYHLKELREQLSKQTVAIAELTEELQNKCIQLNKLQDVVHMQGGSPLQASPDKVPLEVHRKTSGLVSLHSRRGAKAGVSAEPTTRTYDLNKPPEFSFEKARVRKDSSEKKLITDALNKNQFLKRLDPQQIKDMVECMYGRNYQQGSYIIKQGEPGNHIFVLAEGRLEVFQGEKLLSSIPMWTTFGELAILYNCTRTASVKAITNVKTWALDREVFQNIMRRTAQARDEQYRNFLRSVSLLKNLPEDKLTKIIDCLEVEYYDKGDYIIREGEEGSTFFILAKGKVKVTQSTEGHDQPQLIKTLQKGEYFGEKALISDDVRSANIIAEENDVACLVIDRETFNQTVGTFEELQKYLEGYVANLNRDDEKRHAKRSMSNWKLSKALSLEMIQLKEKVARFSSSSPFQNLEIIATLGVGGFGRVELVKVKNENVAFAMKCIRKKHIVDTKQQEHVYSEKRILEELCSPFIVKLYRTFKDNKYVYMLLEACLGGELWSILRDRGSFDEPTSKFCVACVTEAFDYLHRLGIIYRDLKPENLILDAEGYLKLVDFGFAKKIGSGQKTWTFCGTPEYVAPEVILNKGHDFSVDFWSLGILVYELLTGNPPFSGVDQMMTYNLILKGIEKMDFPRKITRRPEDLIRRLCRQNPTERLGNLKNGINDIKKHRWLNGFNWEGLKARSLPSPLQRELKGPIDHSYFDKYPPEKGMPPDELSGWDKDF
As to the kind of experiment: Inhibition of wildtype CGK2 (unknown origin) at 1 uM relative to control.

Series [4] has as its target Citron Rho-interacting kinase (Homo sapiens) (UniProt O14578). As to the kind of experiment: Inhibition of wildtype CRIK (unknown origin) at 1 uM relative to control.
The nature of series [5]: Metabolic stability in rat liver microsomes assessed as half-life. Format: ADME, Microsome.
Series [6] can be described thus: Half-life in C57BL/6J mouse at 1 mg/kg, iv. Format: ADME, organism-based. To be noted: in vivo.
Series [7] addresses T2, CYP3A4 (Homo sapiens, UniProt P08684). Description: Inhibition of CYP3A4 (unknown origin) using midazolam as substrate at 10 uM relative to control. The format is ADME. The settings on record: probe midazolam.
Series [8] can be described thus: Clearance in C57BL/6J mouse at 1 mg/kg, iv. The format is ADME, organism-based. The settings on record: in vivo.
The target of series [9] is Voltage-gated inwardly rectifying potassium channel KCNH2 (Homo sapiens, UniProt Q12809). Description: Inhibition of human ERG by patch clamp assay. Format: toxicity.
Sequence of Voltage-gated inwardly rectifying potassium channel KCNH2 (Q12809 whole entry): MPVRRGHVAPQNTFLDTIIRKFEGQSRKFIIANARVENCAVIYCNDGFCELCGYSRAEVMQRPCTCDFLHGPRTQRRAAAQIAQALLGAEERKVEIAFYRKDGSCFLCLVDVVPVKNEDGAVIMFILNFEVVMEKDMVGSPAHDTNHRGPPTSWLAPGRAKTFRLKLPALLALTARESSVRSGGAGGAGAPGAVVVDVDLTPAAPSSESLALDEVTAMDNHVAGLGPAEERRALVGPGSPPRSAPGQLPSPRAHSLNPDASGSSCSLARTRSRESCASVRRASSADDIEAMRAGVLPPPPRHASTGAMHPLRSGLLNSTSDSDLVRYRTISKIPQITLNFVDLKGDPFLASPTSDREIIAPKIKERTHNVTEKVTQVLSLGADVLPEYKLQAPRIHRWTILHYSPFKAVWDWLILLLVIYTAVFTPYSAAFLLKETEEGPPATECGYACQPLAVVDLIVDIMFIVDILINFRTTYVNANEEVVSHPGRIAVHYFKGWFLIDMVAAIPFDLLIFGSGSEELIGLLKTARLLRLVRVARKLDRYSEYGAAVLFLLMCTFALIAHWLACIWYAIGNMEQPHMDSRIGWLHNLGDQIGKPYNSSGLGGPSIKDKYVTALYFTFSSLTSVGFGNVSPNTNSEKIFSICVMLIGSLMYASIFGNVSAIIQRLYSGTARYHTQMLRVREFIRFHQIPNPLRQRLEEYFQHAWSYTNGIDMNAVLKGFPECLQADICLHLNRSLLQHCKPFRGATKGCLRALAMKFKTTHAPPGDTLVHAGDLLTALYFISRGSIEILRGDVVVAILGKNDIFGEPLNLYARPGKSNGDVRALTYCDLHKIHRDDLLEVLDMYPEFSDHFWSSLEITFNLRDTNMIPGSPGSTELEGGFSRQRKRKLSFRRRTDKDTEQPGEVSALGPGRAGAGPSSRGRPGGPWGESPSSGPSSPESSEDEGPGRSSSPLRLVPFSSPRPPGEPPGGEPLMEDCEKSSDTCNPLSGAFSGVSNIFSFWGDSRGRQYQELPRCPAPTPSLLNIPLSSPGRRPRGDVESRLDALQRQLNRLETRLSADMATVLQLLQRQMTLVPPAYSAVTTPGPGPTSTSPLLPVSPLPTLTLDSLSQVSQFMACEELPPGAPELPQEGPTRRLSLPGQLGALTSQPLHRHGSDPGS
Series [10] in a line: Tmax in dog at 5 mg/kg, po. Format: ADME, organism-based, Canis lupus familiaris. To be noted: in vivo.
The target of another series is CYP2D6 (Homo sapiens, UniProt P10635). As to the kind of experiment: Inhibition of CYP2D6 (unknown origin) at 10 uM relative to control. The format is ADME.
Sequence of CYP2D6 (P10635 whole entry): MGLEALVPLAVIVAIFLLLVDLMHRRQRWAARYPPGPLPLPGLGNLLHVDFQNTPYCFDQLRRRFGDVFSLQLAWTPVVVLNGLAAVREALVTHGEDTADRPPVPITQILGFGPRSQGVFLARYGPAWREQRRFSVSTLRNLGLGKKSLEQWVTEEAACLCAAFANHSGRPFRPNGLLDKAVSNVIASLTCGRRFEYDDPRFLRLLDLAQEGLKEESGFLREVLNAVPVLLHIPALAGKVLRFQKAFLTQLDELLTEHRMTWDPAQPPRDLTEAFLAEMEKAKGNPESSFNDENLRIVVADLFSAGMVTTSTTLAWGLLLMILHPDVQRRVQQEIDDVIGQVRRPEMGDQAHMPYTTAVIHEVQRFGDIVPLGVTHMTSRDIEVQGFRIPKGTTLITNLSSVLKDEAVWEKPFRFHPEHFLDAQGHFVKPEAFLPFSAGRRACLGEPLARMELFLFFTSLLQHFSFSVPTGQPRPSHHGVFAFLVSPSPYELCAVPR
Another series has as its target CYP2C9 (Homo sapiens, UniProt P11712). Description: Inhibition of CYP2C9 (unknown origin) at 10 uM relative to control. Format: ADME.
Series [11] in a line: Metabolic stability in dog liver microsomes assessed as half-life. Format: ADME, Canis lupus familiaris, Microsome.
A short description of series [12]: AUC (0 to 24 hrs) in rat at 10 mg/kg, po. Format: ADME, organism-based. The settings on record: in vivo.
The nature of series [13]: Protein binding in dog plasma assessed as unbound fraction. Format: ADME, cell-free, Canis lupus familiaris.
Series [14] is described as follows: Apparent volume of distribution in rat at 1 mg/kg, iv. The settings on record: in vivo, read-out: Vz. The format is ADME, organism-based.
In series [15] the target is T2, CYP3A4. Description: Inhibition of CYP3A4 (unknown origin) using testosterone as substrate at 10 uM relative to control. The format is ADME. To be noted: probe testosterone.
The target in series [16] is T3, Cyclin-G-associated kinase (Homo sapiens) (UniProt O14976).
T3 sequence (whole entry): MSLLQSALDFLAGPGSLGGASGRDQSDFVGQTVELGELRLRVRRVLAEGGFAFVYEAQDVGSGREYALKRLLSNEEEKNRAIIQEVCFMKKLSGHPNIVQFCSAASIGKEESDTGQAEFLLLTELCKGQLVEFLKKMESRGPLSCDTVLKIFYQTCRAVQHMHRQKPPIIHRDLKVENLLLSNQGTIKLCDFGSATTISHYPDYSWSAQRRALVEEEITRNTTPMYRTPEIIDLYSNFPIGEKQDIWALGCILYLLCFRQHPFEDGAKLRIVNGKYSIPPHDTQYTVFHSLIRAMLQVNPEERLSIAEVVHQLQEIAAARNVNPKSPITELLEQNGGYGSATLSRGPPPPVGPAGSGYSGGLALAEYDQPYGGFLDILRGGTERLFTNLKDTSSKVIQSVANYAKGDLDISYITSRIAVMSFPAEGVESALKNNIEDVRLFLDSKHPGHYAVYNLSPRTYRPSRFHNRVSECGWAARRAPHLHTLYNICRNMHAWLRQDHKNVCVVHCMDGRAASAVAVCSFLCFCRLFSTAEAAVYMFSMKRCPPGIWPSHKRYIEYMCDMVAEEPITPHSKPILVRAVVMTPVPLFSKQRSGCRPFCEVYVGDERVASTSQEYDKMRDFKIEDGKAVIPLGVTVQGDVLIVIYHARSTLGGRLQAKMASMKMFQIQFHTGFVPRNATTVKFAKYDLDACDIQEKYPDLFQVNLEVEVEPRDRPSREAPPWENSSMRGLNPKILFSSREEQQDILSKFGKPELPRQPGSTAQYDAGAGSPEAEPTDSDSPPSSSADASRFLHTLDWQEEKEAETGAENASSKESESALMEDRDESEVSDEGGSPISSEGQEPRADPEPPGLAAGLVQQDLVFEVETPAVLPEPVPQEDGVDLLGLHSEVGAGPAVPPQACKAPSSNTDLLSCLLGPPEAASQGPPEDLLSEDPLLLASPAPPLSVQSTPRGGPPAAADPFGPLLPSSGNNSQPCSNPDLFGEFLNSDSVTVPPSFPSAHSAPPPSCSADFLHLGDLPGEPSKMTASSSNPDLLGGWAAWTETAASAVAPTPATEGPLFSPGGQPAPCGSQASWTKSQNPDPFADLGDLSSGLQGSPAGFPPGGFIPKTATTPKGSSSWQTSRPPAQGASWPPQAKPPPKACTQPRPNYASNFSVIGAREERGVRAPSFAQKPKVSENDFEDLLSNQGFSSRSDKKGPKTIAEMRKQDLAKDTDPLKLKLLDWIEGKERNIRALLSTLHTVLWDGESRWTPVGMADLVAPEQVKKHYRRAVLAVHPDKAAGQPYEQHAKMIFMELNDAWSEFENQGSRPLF
As to the kind of experiment: Inhibition of wildtype GAK (unknown origin) at 1 uM relative to control.

T2 sequence (P08684 whole entry): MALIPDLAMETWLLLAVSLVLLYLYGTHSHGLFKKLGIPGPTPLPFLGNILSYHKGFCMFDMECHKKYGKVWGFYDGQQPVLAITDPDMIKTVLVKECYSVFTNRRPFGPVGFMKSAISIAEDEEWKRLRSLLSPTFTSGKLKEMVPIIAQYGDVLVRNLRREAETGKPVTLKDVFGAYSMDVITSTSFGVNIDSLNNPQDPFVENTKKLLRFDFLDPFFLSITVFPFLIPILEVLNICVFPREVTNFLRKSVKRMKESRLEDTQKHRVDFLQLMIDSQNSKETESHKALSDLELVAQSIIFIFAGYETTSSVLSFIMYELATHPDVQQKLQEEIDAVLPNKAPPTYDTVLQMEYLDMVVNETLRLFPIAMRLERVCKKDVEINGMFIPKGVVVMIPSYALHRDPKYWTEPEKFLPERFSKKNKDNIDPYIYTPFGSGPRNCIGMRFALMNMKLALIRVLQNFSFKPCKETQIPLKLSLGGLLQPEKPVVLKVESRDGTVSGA
Sequence of CYP2C9 (P11712 whole entry): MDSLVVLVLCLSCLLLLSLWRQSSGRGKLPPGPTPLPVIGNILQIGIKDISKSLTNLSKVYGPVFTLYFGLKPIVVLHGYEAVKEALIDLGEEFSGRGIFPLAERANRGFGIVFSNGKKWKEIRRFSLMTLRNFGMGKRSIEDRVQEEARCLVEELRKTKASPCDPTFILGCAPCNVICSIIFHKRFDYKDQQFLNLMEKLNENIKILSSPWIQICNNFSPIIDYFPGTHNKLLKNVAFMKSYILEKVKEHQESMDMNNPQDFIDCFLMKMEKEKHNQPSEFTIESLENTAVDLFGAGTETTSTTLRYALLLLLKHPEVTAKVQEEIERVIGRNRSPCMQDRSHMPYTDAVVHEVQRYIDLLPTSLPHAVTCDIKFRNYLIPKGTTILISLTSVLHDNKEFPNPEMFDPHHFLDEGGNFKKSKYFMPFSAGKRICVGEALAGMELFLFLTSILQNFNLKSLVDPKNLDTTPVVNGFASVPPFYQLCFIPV
Sequence of Citron Rho-interacting kinase (Homo sapiens) (O14578 whole entry): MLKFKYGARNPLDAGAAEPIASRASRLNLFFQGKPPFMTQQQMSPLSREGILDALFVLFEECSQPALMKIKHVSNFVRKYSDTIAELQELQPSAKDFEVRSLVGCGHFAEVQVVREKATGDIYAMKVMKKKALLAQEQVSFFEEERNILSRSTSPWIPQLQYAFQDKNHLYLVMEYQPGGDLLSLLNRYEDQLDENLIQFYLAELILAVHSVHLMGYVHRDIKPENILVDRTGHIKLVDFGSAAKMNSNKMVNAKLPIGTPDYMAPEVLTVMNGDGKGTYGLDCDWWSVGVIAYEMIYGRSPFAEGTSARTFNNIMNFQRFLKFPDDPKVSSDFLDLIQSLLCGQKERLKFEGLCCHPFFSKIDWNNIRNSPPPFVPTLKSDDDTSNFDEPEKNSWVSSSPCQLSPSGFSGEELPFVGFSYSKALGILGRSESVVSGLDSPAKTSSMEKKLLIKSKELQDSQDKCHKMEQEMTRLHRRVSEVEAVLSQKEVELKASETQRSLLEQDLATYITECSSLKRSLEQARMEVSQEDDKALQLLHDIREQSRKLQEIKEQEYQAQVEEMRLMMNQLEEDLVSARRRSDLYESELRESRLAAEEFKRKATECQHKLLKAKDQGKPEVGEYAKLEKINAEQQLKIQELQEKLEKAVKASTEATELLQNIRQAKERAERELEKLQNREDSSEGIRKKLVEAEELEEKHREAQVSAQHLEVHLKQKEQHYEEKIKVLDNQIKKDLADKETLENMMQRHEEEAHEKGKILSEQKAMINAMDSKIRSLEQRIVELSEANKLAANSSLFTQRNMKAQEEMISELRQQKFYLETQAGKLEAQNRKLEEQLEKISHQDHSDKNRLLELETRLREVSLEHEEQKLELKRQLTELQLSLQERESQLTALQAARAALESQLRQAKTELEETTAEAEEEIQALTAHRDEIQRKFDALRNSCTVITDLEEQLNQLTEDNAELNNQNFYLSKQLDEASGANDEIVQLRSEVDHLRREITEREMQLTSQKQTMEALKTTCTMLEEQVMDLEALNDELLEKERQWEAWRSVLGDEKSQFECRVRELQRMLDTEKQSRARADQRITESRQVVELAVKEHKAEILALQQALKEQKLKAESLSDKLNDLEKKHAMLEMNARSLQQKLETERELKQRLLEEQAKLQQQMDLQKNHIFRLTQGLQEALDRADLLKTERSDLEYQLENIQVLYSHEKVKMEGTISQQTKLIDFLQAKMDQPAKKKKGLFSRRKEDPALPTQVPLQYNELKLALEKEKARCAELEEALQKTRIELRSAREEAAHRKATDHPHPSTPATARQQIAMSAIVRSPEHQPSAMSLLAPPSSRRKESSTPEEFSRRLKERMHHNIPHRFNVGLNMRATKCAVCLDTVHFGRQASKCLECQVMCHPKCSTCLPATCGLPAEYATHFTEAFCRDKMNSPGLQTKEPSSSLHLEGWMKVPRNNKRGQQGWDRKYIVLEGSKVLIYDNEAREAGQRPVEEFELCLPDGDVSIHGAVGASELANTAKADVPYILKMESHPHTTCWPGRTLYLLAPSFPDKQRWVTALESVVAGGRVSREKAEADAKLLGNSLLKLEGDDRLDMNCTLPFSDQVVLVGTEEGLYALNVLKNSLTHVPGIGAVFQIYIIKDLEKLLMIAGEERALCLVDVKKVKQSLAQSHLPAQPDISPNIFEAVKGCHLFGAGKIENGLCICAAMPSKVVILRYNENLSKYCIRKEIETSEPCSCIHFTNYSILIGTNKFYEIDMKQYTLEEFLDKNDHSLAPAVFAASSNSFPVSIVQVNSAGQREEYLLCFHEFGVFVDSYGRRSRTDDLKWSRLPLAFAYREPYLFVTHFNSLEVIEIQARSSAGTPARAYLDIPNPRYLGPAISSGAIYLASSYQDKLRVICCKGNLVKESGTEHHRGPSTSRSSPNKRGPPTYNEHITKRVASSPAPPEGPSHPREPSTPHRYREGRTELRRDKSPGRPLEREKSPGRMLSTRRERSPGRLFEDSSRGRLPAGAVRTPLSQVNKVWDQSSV

In the case of `CC(C)C[C@](C)(N)COc1ccc(-c2ccnc(C(F)F)c2)c2nccn12`, the Vd in [1] came out at 14 L/kg; in series [14], 25 L/kg. Moreover, in the series on Rattus norvegicus, the Activity result is on record as “Active; Compound Exhibited Comparable Efficacy To Lx9211”. For the same molecule, the bioavailability in [2] amounted to 103%. Moreover, the figures for the inhibition in series [3], in [4] and in [16] were 65%, 60% and 97%, respectively. The half-life in series [5] was 0.583 h; in series [6] it was 17 h; in [11], 3.07 h. For the same molecule, the inhibition at 10 µM against CYP3A4 [7], on CYP2D6, on CYP2C9 and on CYP3A4 [15] was under 20% each time. Further, the clearance in series [8] is 11.7 mL/min/kg. In series [9], this molecule returned a 50% inhibitory concentration (IC50) of 11.9 µM. Moreover, the time of peak concentration (Tmax) in [10] was found to be 1 h. In series [12], the area under the curve AUC(0-t) worked out at 4640 ng·h/mL. Besides, the fraction unbound in [13] was determined as 0.129.

These data come from ChEMBL document CHEMBL6083275, “Discovery and evaluation of HW161023 as a potent and orally active AAK1 inhibitor” (Bioorg Med Chem Lett, 2024).
